# Measurements as given in patent EP4786474A1, “CRYSTALLINE FORM OF QUINAZOLINE DERIVATIVE AND PREPARATION METHOD THEREFOR” (Jiangsu Hengrui Pharmaceuticals Co., Ltd., priority 2023, dated 2025).
# How the values were obtained:
# Format in all cases: physicochemical
# [1] = Influencing factor stability study; conditions: for physical and chemical stability: light exposure (4500 Lux), high temperature (40 °C and 60 °C), high humidity (RH 75% and RH 92.5%), 30 days
# Experimental: Samples of the crystal forms D, E, and H were spread in open containers and left to stand under light exposure (4500 Lux), high temperature (40 °C and 60 °C), and high humidity (RH 75% and RH 92.5%) conditions for 1 month to investigate their stability.
# [2] = Long-term/accelerated stability; conditions: for physical and chemical stability: long-term/accelerated conditions
# Experimental: Samples of the crystal forms D, E, and H were left to stand under 25 °C/60% RH and 40 °C/75% RH conditions to investigate their stability: Table 30.
# [3] = DVS (dynamic vapor sorption) hygroscopicity testing
# From the text: According to the description of hygroscopicity characteristics and the definition of hygroscopic weight gain in "General Rule 9103, Guidelines for Hygroscopicity Trials for Pharmaceuticals" in the Chinese Pharmacopoeia, Volume IV, 2015 Edition: • deliquescent: sufficient water is absorbed to form a liquid; • extremely hygroscopic: the hygroscopic weight gain is not less than 15%; • hygroscopic: the hygroscopic weight gain is less than 15% but not less than 2%; • slightly hygroscopic: the hygroscopic weight gain is less than 2% but not less than 0.2%; • nonhygroscopic or practically nonhygroscopic: the hygroscopic weight gain is less than 0.2%.
# DVS refers to dynamic vapor sorption: The analysis was performed using SMS DVS Advantage; at 25 °C, the humidity was changed as follows: 50%-95%-0%-95%-50%, in steps of 10% (5% for the last step) (specific humidity ranges are shown in corresponding patterns, and those listed here were used in most cases); the criterion was dm/dt being not greater than 0.002%.
# [4] = accelerated experimental conditions, 70% RH
# [5] = normal storage conditions, 25 °C and 60% RH
smiles,measurement,setting,value
"C=CC(=O)N1[C@@H]2CC[C@H]1C[C@@H](Oc1ccc3ncnc(Nc4ccc(Oc5ccn6ncnc6c5)c(C)c4F)c3c1)C2 [Crystal form D, 1-(endo-3-((4-((4-([1,2,4]Triazolo[1,5-a]pyridin-7-yloxy)-2-fluoro-3-methylphenyl)amino)quinazolin-6-yl)oxy)-8-azabicyclo[3.2.1]octan-8-yl)prop-2-en-1-one]",Color and appearance,"[1]; 40 °C, 1 month",White powder
same,Crystal form,"[1]; 40 °C, 1 month",No change
same,Purity (%),"[1]; 40 °C, 1 month",99.0%
same,Color and appearance,"[1]; 40 °C, 7 days",White powder
same,Crystal form,"[1]; 40 °C, 7 days",No change
same,Color and appearance,"[1]; 40 °C, 13 days",White powder
same,Crystal form,"[1]; 40 °C, 13 days",No change
same,Purity (%),"[1]; 40 °C, 13 days",99.4%
same,Color and appearance,"[1]; 60 °C, 1 month",White powder
same,Crystal form,"[1]; 60 °C, 1 month",No change
same,Purity (%),"[1]; 60 °C, 1 month",99.2%
same,Color and appearance,"[1]; 60 °C, 7 days",White powder
same,Crystal form,"[1]; 60 °C, 7 days",No change
same,Color and appearance,"[1]; 60 °C, 13 days",White powder
same,Crystal form,"[1]; 60 °C, 13 days",No change
same,Purity (%),"[1]; 60 °C, 13 days",99.4%
same,Color and appearance,"[1]; 75% RH, 1 month",White powder
same,Crystal form,"[1]; 75% RH, 1 month",No change
same,Color and appearance,"[1]; 75% RH, 13 days",White powder
same,Crystal form,"[1]; 75% RH, 13 days",No change
same,Color and appearance,"[1]; 92.5% RH, 1 month",White powder
same,Crystal form,"[1]; 92.5% RH, 1 month",No change
same,Color and appearance,"[1]; 92.5% RH, 13 days",White powder
same,Crystal form,"[1]; 92.5% RH, 13 days",No change
same,Color and appearance,"[1]; 4500 Lux, 1 month",White powder
same,Crystal form,"[1]; 4500 Lux, 1 month",No change
same,Purity (%),"[1]; 4500 Lux, 1 month",99.2%
same,Color and appearance,"[1]; 4500 Lux, 7 days",White powder
same,Crystal form,"[1]; 4500 Lux, 7 days",No change
same,Purity (%),"[1]; 4500 Lux, 7 days",99.4%
same,Color and appearance,"[1]; 4500 Lux, 13 days",White powder
same,Crystal form,"[1]; 4500 Lux, 13 days",No change
same,Purity (%),"[1]; 4500 Lux, 13 days",99.3%
same,Color and appearance,"[1]; Initial, 0",White powder
same,Crystal form,"[1]; Initial, 0",Crystal form D
same,physical and chemical stability,[1],"Conclusion: Standing under light exposure (4500 Lux), high temperature (40 °C and 60 °C), and high humidity (RH 75% and RH 92.5%) conditions for 30 days, the crystal form D exhibited good physical and chemical stability."
same,Color and appearance,"[2]; 25 °C/60% RH, 1 month",White powder
same,Crystal form,"[2]; 25 °C/60% RH, 1 month",No change
same,Color and appearance,"[2]; 25 °C/60% RH, 2 months",White powder
same,Crystal form,"[2]; 25 °C/60% RH, 2 months",No change
same,Color and appearance,"[2]; 25 °C/60% RH, 3 months",White powder
same,Crystal form,"[2]; 25 °C/60% RH, 3 months",No change
same,Color and appearance,"[2]; 25 °C/60% RH, 6 months",White powder
same,Crystal form,"[2]; 25 °C/60% RH, 6 months",No change
same,Color and appearance,"[2]; 25 °C/60% RH, 14 days",White powder
same,Crystal form,"[2]; 25 °C/60% RH, 14 days",No change
same,Color and appearance,"[2]; 40 °C/75% RH, 1 month",White powder
same,Crystal form,"[2]; 40 °C/75% RH, 1 month",No change
same,Color and appearance,"[2]; 40 °C/75% RH, 2 months",White powder
same,Crystal form,"[2]; 40 °C/75% RH, 2 months",No change
same,Color and appearance,"[2]; 40 °C/75% RH, 3 months",White powder
same,Crystal form,"[2]; 40 °C/75% RH, 3 months",No change
same,Color and appearance,"[2]; 40 °C/75% RH, 6 months",White powder
same,Crystal form,"[2]; 40 °C/75% RH, 6 months",No change
same,Color and appearance,"[2]; 40 °C/75% RH, 14 days",White powder
same,Crystal form,"[2]; 40 °C/75% RH, 14 days",No change
same,Color and appearance,"[2]; Initial, 0",White powder
same,Crystal form,"[2]; Initial, 0",Crystal form D
same,physical and chemical stability,[2],"Conclusion: Under long-term/accelerated conditions, the crystal form D exhibited good physical and chemical stability."
same,hygroscopic weight gain,[3]; [4],about 3.23%
same,crystal form re-identified after DVS testing,[3],the crystal form did not change
same,hygroscopic weight gain,"[3]; extreme conditions, 90% RH",about 3.52%
same,hygroscopic weight gain,[3]; [5],about 3.07%
"C=CC(=O)N1[C@@H]2CC[C@H]1C[C@@H](Oc1ccc3ncnc(Nc4ccc(Oc5ccn6ncnc6c5)c(C)c4F)c3c1)C2 [Crystal form E, 1-(endo-3-((4-((4-([1,2,4]Triazolo[1,5-a]pyridin-7-yloxy)-2-fluoro-3-methylphenyl)amino)quinazolin-6-yl)oxy)-8-azabicyclo[3.2.1]octan-8-yl)prop-2-en-1-one]",Color and appearance,"[1]; 40 °C, 1 month",White powder
same,Crystal form,"[1]; 40 °C, 1 month",No change
same,Purity (%),"[1]; 40 °C, 1 month",99.3%
same,Color and appearance,"[1]; 40 °C, 7 days",White powder
same,Crystal form,"[1]; 40 °C, 7 days",No change
same,Color and appearance,"[1]; 40 °C, 14 days",White powder
same,Crystal form,"[1]; 40 °C, 14 days",No change
same,Color and appearance,"[1]; 60 °C, 1 month",White powder
same,Crystal form,"[1]; 60 °C, 1 month",No change
same,Color and appearance,"[1]; 60 °C, 7 days",White powder
same,Crystal form,"[1]; 60 °C, 7 days",No change
same,Color and appearance,"[1]; 60 °C, 14 days",White powder
same,Crystal form,"[1]; 60 °C, 14 days",No change
same,Color and appearance,"[1]; 75% RH, 1 month",White powder
same,Crystal form,"[1]; 75% RH, 1 month",No change
same,Color and appearance,"[1]; 75% RH, 7 days",White powder
same,Crystal form,"[1]; 75% RH, 7 days",No change
same,Color and appearance,"[1]; 75% RH, 14 days",White powder
same,Crystal form,"[1]; 75% RH, 14 days",No change
same,Color and appearance,"[1]; 92.5% RH, 1 month",White powder
same,Crystal form,"[1]; 92.5% RH, 1 month",No change
same,Color and appearance,"[1]; 92.5% RH, 7 days",White powder
same,Crystal form,"[1]; 92.5% RH, 7 days",No change
same,Color and appearance,"[1]; 92.5% RH, 14 days",White powder
same,Crystal form,"[1]; 92.5% RH, 14 days",No change
same,Color and appearance,"[1]; 4500 Lux, 1 month",White powder
same,Crystal form,"[1]; 4500 Lux, 1 month",No change
same,Purity (%),"[1]; 4500 Lux, 1 month",99.4%
same,Color and appearance,"[1]; 4500 Lux, 7 days",White powder
same,Crystal form,"[1]; 4500 Lux, 7 days",No change
same,Color and appearance,"[1]; 4500 Lux, 14 days",White powder
same,Crystal form,"[1]; 4500 Lux, 14 days",No change
same,Color and appearance,"[1]; Initial, 0",White powder
same,Crystal form,"[1]; Initial, 0",Crystal form E
same,physical and chemical stability,[1],"Conclusion: Standing under light exposure (4500 Lux), high temperature (40 °C and 60 °C), and high humidity (RH 75% and RH 92.5%) conditions for 30 days, the crystal form E exhibited good physical and chemical stability."
same,Color and appearance,"[2]; 25 °C/60% RH, 1 month",White powder
same,Crystal form,"[2]; 25 °C/60% RH, 1 month",No change
same,Color and appearance,"[2]; 25 °C/60% RH, 2 months",White powder
same,Crystal form,"[2]; 25 °C/60% RH, 2 months",No change
same,Color and appearance,"[2]; 25 °C/60% RH, 3 months",White powder
same,Crystal form,"[2]; 25 °C/60% RH, 3 months",No change
same,Color and appearance,"[2]; 25 °C/60% RH, 6 months",White powder
same,Crystal form,"[2]; 25 °C/60% RH, 6 months",No change
same,Color and appearance,"[2]; 25 °C/60% RH, 14 days",White powder
same,Crystal form,"[2]; 25 °C/60% RH, 14 days",No change
same,Color and appearance,"[2]; 40 °C/75% RH, 1 month",White powder
same,Crystal form,"[2]; 40 °C/75% RH, 1 month",No change
same,Color and appearance,"[2]; 40 °C/75% RH, 2 months",White powder
same,Crystal form,"[2]; 40 °C/75% RH, 2 months",No change
same,Color and appearance,"[2]; 40 °C/75% RH, 3 months",White powder
same,Crystal form,"[2]; 40 °C/75% RH, 3 months",No change
same,Color and appearance,"[2]; 40 °C/75% RH, 6 months",White powder
same,Crystal form,"[2]; 40 °C/75% RH, 6 months",No change
same,Color and appearance,"[2]; 40 °C/75% RH, 14 days",White powder
same,Crystal form,"[2]; 40 °C/75% RH, 14 days",No change
same,Color and appearance,"[2]; Initial, 0",White powder
same,Crystal form,"[2]; Initial, 0",Crystal form E
same,physical and chemical stability,[2],"Conclusion: Under long-term/accelerated conditions, the crystal form E exhibited good physical and chemical stability."
same,hygroscopic weight gain,[3]; [4],about 0.15%
same,crystal form re-identified after DVS testing,[3],the crystal form did not change
same,hygroscopic weight gain,"[3]; extreme conditions, 90% RH",about 0.25%
same,hygroscopic weight gain,[3]; [5],about 0.11%
"C=CC(=O)N1[C@@H]2CC[C@H]1C[C@@H](Oc1ccc3ncnc(Nc4ccc(Oc5ccn6ncnc6c5)c(C)c4F)c3c1)C2 [Crystal form J, 1-(endo-3-((4-((4-([1,2,4]Triazolo[1,5-a]pyridin-7-yloxy)-2-fluoro-3-methylphenyl)amino)quinazolin-6-yl)oxy)-8-azabicyclo[3.2.1]octan-8-yl)prop-2-en-1-one]",hygroscopic weight gain,[3]; [4],about 2.64%
same,hygroscopic weight gain,"[3]; extreme conditions, 90% RH",about 8.10%
same,hygroscopic weight gain,[3]; [5],about 2.44%
